Columns and labels:
[1] = target: SRSF protein kinase 1 (Homo sapiens) (UniProt Q96SB4); experiment: Residual activity of human SRPK1 using GRSRSRSRSR as substrate at 1 uM in presence of 32P-ATP by Hotspot assay relative to control
[2] = target: Tyrosine-protein kinase JAK1 (Homo sapiens) (UniProt P23458); experiment: Inhibition of human JAK1 using poly[Glu:Tyr] (4:1) as substrate at 1 uM in presence of 32P-ATP by Hotspot assay relative to control; values are per cent of control
[3] = target: LIM domain kinase 1 (Homo sapiens) (UniProt P53667); experiment: Inhibition of human LIMK1 using cofilin 1 as substrate at 1 uM in presence of 32P-ATP by Hotspot assay relative to control; values are per cent of control
[4] = target: T1, Serine/threonine-protein kinase Sgk2 (Homo sapiens) (UniProt Q9HBY8); experiment: Inhibition of human SGK2 using KGSGSGRPRTSSFAEG as substrate at 1 uM in presence of 32P-ATP by Hotspot assay relative to control; values are per cent of control
T1 sequence (whole entry): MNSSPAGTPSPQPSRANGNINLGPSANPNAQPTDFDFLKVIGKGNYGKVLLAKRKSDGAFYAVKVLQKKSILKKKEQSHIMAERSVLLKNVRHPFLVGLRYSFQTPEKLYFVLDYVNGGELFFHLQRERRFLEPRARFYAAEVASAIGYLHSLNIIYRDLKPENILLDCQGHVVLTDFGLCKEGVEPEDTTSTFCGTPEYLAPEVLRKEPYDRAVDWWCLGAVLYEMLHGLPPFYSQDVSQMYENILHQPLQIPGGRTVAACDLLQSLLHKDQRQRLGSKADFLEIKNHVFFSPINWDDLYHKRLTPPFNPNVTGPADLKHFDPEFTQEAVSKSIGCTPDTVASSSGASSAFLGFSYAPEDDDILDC

[5] = target: T2, Ephrin type-A receptor 8 (Homo sapiens) (UniProt P29322); experiment: Inhibition of human EPHA8 using poly[Glu:Tyr] (4:1) as substrate at 1 uM in presence of 32P-ATP by Hotspot assay relative to control; values are per cent of control
T2 sequence (whole entry): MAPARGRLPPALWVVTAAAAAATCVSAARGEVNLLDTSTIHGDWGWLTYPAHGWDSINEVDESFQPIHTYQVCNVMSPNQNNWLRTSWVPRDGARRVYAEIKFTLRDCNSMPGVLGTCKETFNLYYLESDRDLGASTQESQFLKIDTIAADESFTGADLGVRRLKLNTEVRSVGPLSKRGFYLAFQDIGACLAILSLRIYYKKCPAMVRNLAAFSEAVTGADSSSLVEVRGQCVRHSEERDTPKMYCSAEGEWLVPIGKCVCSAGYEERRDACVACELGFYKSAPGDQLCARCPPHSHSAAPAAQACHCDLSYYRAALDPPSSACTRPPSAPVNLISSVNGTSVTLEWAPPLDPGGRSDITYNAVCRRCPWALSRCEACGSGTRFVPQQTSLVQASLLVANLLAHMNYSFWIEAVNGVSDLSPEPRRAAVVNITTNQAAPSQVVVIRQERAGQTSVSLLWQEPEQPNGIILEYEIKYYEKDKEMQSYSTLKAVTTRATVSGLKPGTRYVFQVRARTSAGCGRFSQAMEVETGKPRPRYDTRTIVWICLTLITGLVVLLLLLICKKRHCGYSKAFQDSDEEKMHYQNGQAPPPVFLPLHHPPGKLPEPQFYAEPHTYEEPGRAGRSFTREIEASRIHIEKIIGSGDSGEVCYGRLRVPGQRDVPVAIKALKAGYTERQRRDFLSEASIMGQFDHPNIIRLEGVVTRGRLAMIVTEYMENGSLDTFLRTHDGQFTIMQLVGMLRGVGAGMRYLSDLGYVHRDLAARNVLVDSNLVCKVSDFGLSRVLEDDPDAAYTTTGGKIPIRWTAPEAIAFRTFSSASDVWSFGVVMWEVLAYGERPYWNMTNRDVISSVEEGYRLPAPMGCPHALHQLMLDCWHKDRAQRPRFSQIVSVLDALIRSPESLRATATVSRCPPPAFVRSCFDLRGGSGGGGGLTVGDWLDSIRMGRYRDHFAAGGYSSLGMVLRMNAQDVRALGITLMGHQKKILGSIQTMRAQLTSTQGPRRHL

[6] = target: Serine/threonine-protein kinase PAK 4 (Homo sapiens) (UniProt O96013); experiment: Inhibition of human PAK4 using RRRLSFAEPG as substrate at 1 uM in presence of 32P-ATP by Hotspot assay relative to control; values are per cent of control
[7] = target: T3, Mitogen-activated protein kinase kinase kinase kinase 2 (Homo sapiens) (UniProt Q12851); experiment: Inhibition of human GCK/MAP4K2 using myelin basic protein as substrate at 1 uM in presence of 32P-ATP by Hotspot assay relative to control; values are per cent of control
T3 sequence (whole entry): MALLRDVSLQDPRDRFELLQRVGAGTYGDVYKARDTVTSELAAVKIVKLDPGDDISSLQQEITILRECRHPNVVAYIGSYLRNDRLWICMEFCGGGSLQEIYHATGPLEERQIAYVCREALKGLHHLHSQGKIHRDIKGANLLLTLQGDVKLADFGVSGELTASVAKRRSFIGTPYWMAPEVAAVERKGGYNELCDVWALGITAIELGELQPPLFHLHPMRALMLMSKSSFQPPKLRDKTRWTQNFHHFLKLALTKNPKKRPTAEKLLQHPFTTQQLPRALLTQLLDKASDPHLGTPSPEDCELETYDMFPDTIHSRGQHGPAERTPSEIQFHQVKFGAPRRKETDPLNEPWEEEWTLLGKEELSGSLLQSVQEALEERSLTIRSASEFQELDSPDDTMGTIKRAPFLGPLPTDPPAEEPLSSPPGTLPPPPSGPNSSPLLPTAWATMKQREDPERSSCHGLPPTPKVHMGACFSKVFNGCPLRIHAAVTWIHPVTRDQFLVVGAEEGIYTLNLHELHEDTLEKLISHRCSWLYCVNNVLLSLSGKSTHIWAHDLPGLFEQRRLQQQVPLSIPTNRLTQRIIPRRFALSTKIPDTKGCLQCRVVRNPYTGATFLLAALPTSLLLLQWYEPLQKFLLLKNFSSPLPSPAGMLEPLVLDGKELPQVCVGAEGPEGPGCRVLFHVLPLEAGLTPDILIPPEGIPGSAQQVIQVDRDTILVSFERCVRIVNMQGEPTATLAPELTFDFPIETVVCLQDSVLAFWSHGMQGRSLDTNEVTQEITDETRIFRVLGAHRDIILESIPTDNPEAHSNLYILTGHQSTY

Homo sapiens = species: Homo sapiens; experiment: Inhibition of human CDK2/cyclin A using RB Protein as substrate at 1 uM in presence of 32P-ATP by Hotspot assay relative to control; values are per cent of control

Sequence of LIM domain kinase 1 (Homo sapiens) (P53667 whole entry, looked up, the tested form may be a part): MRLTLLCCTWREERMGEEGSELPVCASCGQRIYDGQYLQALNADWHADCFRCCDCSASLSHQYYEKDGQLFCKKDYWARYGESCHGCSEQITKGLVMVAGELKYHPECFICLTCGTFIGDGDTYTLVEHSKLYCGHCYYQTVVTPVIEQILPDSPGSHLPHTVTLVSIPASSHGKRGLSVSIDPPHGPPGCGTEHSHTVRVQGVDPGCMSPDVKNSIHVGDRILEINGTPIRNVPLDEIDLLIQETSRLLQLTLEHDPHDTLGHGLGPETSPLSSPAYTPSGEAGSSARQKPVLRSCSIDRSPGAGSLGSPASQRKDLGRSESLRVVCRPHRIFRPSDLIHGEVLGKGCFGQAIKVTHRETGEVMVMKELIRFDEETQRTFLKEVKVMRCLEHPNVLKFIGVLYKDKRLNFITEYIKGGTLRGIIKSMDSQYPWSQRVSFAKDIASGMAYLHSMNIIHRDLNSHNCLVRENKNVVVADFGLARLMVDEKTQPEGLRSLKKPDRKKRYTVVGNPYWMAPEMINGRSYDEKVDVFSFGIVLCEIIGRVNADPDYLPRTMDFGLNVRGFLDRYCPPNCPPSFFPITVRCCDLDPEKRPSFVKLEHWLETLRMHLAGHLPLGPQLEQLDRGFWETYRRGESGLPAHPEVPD
Sequence of Serine/threonine-protein kinase PAK 4 (Homo sapiens) (O96013 whole entry, looked up): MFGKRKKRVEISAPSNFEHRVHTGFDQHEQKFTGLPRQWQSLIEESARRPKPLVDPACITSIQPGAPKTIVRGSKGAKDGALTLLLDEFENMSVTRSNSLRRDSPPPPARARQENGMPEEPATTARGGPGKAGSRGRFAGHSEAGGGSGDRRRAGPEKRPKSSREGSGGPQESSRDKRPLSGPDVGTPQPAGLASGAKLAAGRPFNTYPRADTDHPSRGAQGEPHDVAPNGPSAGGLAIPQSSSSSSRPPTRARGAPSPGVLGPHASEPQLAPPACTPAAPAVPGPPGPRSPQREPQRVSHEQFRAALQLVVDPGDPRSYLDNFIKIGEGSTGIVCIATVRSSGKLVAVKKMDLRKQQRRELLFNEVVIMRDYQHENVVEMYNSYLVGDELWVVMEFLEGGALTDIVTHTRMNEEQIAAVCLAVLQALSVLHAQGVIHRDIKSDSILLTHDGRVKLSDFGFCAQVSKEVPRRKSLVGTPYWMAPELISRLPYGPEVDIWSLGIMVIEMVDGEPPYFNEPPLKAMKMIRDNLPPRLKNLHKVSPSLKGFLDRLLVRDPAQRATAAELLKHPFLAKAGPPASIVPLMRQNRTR
Sequence of Tyrosine-protein kinase JAK1 (Homo sapiens) (P23458 whole entry, the tested form may be a part): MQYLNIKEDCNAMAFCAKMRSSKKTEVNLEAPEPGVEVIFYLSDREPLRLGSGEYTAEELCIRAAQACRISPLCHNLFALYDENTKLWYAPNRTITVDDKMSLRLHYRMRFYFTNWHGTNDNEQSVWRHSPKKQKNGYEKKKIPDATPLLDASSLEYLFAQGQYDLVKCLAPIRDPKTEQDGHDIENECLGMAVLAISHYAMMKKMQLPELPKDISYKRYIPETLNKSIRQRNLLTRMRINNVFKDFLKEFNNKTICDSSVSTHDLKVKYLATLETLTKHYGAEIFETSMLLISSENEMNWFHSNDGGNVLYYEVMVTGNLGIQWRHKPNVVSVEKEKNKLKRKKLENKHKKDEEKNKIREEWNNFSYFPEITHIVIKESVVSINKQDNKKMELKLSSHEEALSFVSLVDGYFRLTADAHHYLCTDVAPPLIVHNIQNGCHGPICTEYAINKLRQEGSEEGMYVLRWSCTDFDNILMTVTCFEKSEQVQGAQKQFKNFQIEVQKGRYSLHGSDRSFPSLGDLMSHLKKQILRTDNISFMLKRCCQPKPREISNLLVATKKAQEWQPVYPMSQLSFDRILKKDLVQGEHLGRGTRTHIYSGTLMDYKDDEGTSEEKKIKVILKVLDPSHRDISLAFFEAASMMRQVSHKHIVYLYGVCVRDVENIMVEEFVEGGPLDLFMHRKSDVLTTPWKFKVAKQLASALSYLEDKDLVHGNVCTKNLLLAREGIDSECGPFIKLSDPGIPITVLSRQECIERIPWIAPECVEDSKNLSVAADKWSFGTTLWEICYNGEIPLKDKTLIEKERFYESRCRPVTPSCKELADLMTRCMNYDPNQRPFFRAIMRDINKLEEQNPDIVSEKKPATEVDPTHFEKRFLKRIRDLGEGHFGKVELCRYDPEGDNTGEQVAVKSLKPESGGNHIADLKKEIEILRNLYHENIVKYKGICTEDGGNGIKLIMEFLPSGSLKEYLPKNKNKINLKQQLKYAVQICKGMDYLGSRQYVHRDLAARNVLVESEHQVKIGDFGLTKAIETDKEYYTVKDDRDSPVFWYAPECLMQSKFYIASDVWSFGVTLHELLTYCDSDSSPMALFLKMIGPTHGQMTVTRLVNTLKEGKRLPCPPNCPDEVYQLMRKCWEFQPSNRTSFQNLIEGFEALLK
Sequence of SRSF protein kinase 1 (Homo sapiens) (Q96SB4 whole entry): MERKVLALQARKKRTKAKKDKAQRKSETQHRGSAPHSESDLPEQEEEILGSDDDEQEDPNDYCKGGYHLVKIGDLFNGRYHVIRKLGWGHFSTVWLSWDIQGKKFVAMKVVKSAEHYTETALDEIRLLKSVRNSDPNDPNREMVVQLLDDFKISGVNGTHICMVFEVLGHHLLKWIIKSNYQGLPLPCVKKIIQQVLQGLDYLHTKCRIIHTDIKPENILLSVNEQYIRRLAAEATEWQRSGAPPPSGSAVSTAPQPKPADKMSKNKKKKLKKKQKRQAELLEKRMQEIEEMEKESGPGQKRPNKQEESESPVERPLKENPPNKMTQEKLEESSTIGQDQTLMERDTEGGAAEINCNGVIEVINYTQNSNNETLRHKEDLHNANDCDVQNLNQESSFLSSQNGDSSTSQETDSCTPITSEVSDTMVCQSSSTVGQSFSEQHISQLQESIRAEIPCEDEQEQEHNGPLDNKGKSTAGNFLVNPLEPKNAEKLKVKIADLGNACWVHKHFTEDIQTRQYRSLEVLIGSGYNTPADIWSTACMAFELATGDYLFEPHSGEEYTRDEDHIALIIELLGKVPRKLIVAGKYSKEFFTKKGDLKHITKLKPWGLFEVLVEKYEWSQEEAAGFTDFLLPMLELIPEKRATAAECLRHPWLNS

For `Cc1cc(-c2cnc(N)c3c(-c4ccc5scnc5c4)csc23)n(C)n1`, the residual activity [1] was 95.3%, the residual activity [2] was 88.3% and the residual activity [3] was 65.6%. The residual activity [4] was 87.7%, the residual activity [5] was 62.7% and the residual activity [6] was 100%. For the same compound, the residual activity [7] was 68.1% and the residual activity (Homo sapiens) was 86%.

In the case of `CC(C)S(=O)(=O)c1ccc2nccc(Nc3ccc4scnc4c3)c2c1`, the residual activity [1] is reported as 104%, the residual activity [2] is reported as 94.9% and the residual activity [3] is reported as 93%. The residual activity [4] was 99.9%, the residual activity [5] was 42.8% and the residual activity [6] was 99%. It also gave a residual activity [7] of 88.3% and a residual activity (Homo sapiens) of 97.2%.

`CNC(=O)c1ccc2c(c1)ncn2-c1ccc(CC(=O)OC(C)(C)C)cc1` was tested, and the residual activity [1] was 112%, the residual activity [2] was 98.2% and the residual activity [3] was 72.9%. The residual activity [4] was 102%, the residual activity [5] was 96.7% and the residual activity [6] was 99.6%. For the same compound, the residual activity [7] was 91.8% and the residual activity (Homo sapiens) was 101%.
